Experimental data reported in ChEMBL document CHEMBL5210121, “Affinity On-target Cellular Literature for EUbOPEN Chemogenomics Library wave 3” (2023).

How the values were obtained:
[1] = molecular target: T1, Protein AF-9 (Homo sapiens, UniProt P42568)
[2] = molecular target: T1, Protein AF-9; assay: Affinity On-target Cellular interaction (NanoBRET assay (HEK293T cells)) EUB0000732a MLLT3; parameters: mode of action Negative control for PFI-6, recommended concentration 1 uM
[3] = molecular target: T2, NADH dehydrogenase [ubiquinone] iron-sulfur protein 2, mitochondrial (Homo sapiens, UniProt O75306); assay: Affinity On-target Cellular interaction (Cellular activity assay (measurement of ATP levels in presence of complex II substrate succinate in H1299 cells)) EUB0000752a NDUFS2; assay type: cell-based; parameters: mode of action Inhibitor, recommended concentration 1 uM
T2 sequence (O75306 whole entry): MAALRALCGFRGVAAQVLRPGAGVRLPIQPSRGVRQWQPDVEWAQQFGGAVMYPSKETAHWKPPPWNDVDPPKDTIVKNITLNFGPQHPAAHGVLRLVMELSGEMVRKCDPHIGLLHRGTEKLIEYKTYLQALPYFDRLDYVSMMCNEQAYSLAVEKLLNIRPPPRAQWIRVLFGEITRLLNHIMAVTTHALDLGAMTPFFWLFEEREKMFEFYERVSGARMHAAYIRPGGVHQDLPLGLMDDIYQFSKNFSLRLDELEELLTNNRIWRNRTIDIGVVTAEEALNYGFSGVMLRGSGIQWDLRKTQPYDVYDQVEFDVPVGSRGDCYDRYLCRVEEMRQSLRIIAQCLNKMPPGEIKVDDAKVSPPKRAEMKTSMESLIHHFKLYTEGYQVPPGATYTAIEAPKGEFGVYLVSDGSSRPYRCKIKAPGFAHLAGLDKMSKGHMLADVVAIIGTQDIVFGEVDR

[4] = molecular target: Protein ENL (Homo sapiens, UniProt Q03111); assay: Affinity On-target Cellular interaction (NanoBRET assay (HEK293T cells)) EUB0000283b MLLT1; parameters: mode of action Inhibitor, recommended concentration 1 uM
Sequence of Protein ENL (Q03111 whole entry): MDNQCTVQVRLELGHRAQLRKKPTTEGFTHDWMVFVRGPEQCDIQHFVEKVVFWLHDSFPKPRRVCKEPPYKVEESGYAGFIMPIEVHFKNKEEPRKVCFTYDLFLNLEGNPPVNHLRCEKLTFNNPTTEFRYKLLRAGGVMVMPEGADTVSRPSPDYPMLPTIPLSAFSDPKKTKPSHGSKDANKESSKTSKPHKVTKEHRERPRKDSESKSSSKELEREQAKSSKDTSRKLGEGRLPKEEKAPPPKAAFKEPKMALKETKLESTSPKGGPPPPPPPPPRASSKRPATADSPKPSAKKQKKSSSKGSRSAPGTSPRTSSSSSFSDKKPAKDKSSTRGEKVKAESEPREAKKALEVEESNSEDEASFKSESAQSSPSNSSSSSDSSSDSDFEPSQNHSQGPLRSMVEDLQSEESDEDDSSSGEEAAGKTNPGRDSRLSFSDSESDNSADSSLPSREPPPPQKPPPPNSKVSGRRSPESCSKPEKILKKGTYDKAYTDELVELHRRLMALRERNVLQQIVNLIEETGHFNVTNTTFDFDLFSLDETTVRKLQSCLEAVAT

[5] = molecular target: Protein farnesyltransferase subunit beta (Homo sapiens, UniProt P49356); assay: Affinity On-target Cellular interaction (Western Blot (inhibition of Ras in NIH 3T3 H-Ras cells)) EUB0000289c FNTB; assay type: cell-based; parameters: mode of action Inhibitor, recommended concentration 1 uM
Sequence of Protein farnesyltransferase subunit beta (P49356 whole entry): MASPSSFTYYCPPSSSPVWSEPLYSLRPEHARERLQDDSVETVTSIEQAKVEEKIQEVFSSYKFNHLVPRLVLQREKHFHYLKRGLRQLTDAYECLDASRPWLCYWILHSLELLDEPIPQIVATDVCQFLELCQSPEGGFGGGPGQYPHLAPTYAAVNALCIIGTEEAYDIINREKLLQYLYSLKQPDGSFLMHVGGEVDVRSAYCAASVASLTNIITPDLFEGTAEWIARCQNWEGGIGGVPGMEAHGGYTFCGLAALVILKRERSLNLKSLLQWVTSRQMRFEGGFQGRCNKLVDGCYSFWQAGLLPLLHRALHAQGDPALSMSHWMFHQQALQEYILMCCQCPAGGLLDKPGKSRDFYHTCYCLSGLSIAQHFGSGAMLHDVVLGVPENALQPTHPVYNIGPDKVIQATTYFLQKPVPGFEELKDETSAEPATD

[6] = molecular target: T2, NADH dehydrogenase [ubiquinone] iron-sulfur protein 2, mitochondrial; assay: Affinity On-target Cellular interaction (Cellular activity assay (measurement of ATP levels in presence of complex II substrate succinate in H1299 cells)) EUB0000748a NDUFS2; assay type: cell-based; parameters: mode of action Negative control for BAY-179, recommended concentration 1 uM
[7] = Affinity On-target Cellular interaction (Measles Virus Inhibition Assay) EUB0000745a DHODH
[8] = molecular target: Cytochrome P450 11B2, mitochondrial (Homo sapiens, UniProt P19099); assay: Affinity On-target Cellular interaction (HTRF-based assay (V79 cell lines, CisBio)) EUB0000733a CYP11B2; parameters: mode of action Negative control for MSD-CYP11B2, recommended concentration 100 nM
Sequence of Cytochrome P450 11B2, mitochondrial (P19099 whole entry): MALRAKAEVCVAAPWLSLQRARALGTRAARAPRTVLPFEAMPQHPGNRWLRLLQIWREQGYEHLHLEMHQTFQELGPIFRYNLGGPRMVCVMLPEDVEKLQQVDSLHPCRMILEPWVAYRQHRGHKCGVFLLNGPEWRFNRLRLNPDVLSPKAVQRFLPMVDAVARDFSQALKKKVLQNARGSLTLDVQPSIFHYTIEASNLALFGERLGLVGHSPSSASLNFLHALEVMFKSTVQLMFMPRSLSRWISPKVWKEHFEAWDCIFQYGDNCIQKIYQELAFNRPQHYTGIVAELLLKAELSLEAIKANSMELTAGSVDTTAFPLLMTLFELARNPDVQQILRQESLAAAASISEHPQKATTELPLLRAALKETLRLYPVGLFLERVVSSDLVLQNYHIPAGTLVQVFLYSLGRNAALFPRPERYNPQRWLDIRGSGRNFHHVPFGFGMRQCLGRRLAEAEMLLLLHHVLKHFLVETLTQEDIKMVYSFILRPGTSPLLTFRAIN

[9] = Affinity On-target Cellular interaction (Cell-based assay) EUB0000315b MGAT2

T1 sequence (P42568 whole entry): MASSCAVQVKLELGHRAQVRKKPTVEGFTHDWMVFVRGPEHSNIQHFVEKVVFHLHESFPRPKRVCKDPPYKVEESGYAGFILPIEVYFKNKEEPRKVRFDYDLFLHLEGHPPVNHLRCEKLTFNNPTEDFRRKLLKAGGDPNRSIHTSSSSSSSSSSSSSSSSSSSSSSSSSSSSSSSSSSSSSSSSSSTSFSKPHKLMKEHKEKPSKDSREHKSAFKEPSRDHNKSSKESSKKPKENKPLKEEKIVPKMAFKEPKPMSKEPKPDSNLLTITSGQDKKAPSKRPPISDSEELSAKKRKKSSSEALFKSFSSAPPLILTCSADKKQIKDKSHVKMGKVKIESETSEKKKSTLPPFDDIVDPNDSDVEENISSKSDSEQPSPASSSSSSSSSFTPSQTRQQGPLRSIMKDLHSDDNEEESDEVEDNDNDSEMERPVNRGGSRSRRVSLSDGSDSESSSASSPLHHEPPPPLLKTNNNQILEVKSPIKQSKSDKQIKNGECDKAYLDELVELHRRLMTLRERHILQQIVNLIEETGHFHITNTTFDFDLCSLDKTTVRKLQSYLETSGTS

For `CN(C)C(=O)c1ccc(-c2cc(C(=O)N[C@@H]3CCc4ccccc43)no2)cc1O`, which IC50 [1] is on record?
The IC50 was 0.76 µM.

With `CN(C)C(=O)c1ccc(-c2cc(C(=O)N(C)C3CCCC3)no2)cc1O` as the compound, how does the IC50 [2] read?
Its IC50 is over 30 µM.

Which IC50 [3] does the source give for `c1ccc2oc(-c3csc(C4CCN(Cc5nc6ncccc6[nH]5)CC4)n3)cc2c1` here?
The IC50 was 0.079 µM.

For `C[C@H]1CCCN1Cc1nc2cc(NC(=O)c3ccc4cnccc4c3)ccc2[nH]1`, which IC50 [4] is on record?
Its IC50 is 0.5 µM.

Which EC50 [5] does the source give for `Cn1cncc1[C@](O)(COc1ccc(C#N)cc1-c1ccc(OC(F)(F)F)cc1)c1ccc(C#N)cc1` [ABT-100] here?
The EC50 was 0.00073 µM.

With `Cn1c(-c2csc(C3CCN(CC4=NC5N=CC=CC5N4)CC3)n2)nc2ccccc21` (centres undefined) [BAY-070] as the compound, how does the IC50 [6] read?
The IC50 was over 30 µM.

With `Cc1c(Oc2ccc(F)cc2)c(OC(C)C)nn1-c1ccc(C2CC2)cn1` [IPP/CNRS-A019] as the compound, how does the IC50 [7] read?
The IC50 was 1.2 µM.

For `FC(F)(F)c1ccc2c(c1)nc(-c1cccnc1)n2C1CC1` [MSD-CYP11B2-Negative-control], which IC50 [8] is on record?
Its IC50 is over 10 µM.

For `Cn1nc(C(F)(F)F)cc1-c1cnc(N2CCc3cc(S(=O)(=O)Nc4c(F)cc(Cl)cc4F)cc(N4CCCC4=O)c32)nc1` [TP-020], which IC50 [9] is on record?
Its IC50 is 0.16 µM.
